In experiment [1] the test system is SARS-CoV-2 Delta variant (B.1.617.2). In words: Virucidal assay against SARS-CoV-2. It counts as cell-based. Particulars: for virucidal activity against SARS-CoV-2: in words.
For experiment [2] the test system is unchanged. It counts as cell-based.

These results are taken from article PMC12679602 (RSC Advances, 2025).

SMILES strings stand for the structures. “Also recorded” adds a separate entry of the source.

As for `C[C@H](CCC(=O)O)[C@H]1CC[C@H]2[C@@H]3[C@H](O)C[C@@H]4C[C@H](O)CC[C@]4(C)[C@H]3CC[C@]12C` [CDCA (13), chenodeoxycholic acid], the “virucidal activity against SARS-CoV-2” value in experiment [1] is listed as “did not exhibit antiviral or virucidal activity”; in experiment [1] (13), “did not show activity”. For the same molecule, the “antiviral activity toward SARS-CoV-2” value in experiment [2] was “did not exhibit antiviral activity; also recorded: did not exhibit antiviral or virucidal activity”.
`C[C@H](CCC(=O)O)[C@H]1CC[C@H]2[C@@H]3CC[C@@H]4C[C@H](O)CC[C@]4(C)[C@H]3C[C@H](O)[C@]12C` [DCA (5), deoxycholic acid]: the “virucidal activity against SARS-CoV-2” value in experiment [1] was “did not exhibit antiviral or virucidal activity”; in experiment [1] (listed as DCA, 5) it was “did not show activity”. Besides, the “antiviral activity toward SARS-CoV-2” value in experiment [2] is given as “did not exhibit antiviral activity; also recorded: did not exhibit antiviral or virucidal activity”.
As for `C[C@H](CCC(=O)O)[C@H]1CC[C@H]2[C@@H]3CC[C@@H]4C[C@H](O)CC[C@]4(C)[C@H]3CC[C@]12C` [LCA (1), lithocholic acid], the “SI (selectivity index)” value in experiment [1] (SI = CC50/EC50, virucidal assay) is reported as above 5.16. Besides, the “antiviral activity toward SARS-CoV-2” value in experiment [2] was “did not exhibit antiviral activity”.
For `C[C@H](CCC(=O)O)[C@H]1CC[C@H]2[C@@H]3[C@@H](O)C[C@@H]4C[C@H](O)CC[C@]4(C)[C@H]3CC[C@]12C` [UDCA (9), ursodeoxycholic acid], the “virucidal activity against SARS-CoV-2” value is “did not exhibit antiviral or virucidal activity” in experiment [1] and “did not show activity” in experiment [1] (9). For the same molecule, the “antiviral activity toward SARS-CoV-2” value in experiment [2] is “did not exhibit antiviral activity; also recorded: did not exhibit antiviral or virucidal activity”.
For `C[C@H](CCC(=O)[O-])[C@H]1CC[C@H]2[C@@H]3CC[C@@H]4C[C@H](O)CC[C@]4(C)[C@H]3CC[C@]12C.C[N+](C)(C)CCO` [[LCA][Z] (4)], the “virucidal activity, times lower than the free acid LCA (1)” value in experiment [1] (ratio of EC50 values) is 3.27 times.
